Reference: PMC10290391, “Targeted degradation of ⍺-synuclein aggregates in Parkinson’s disease using the AUTOTAC technology” (Molecular Neurodegeneration, 2023)

How the values were obtained:
[1] = tested on: LAMP1+ lysosomes; test: Immunocytochemistry of LAMP1+ lysosomes in SH-SY5Y α-syn A53T cells transduced with PFFs; assay type: cell-based, human; settings: 1 μM, 6 h, with Baf. A1
Method: Cells were fixed with 4% paraformaldehyde (PFA) for 20 min at room temperature, followed by permeabilization with 0.1% Triton X-100 buffer for 15 min. The cells were blocked with 2% bovine serum albumin (BSA) in PBS for 1 h at room temperature. Then, the cells were incubated with primary antibodies diluted in the blocking buffer overnight at 4 °C. After washing with PBS, the slides were incubated with AlexaFluor-conjugated secondary antibodies for 1 h at room temperature. After mounting the slides with mounting solution containing DAPI, the images were captured on an LSM700 confocal microscopy (Carl Zeiss).

[2] = tested on: cleaved-PARP1; test: Western blot of cleaved-PARP1 in h-α-syn PFF-transduced HEK293A cells; assay type: cell-based, human; settings: 1 μM, 24 h
Method: (§1) For the separation of Triton X-100 soluble and insoluble fractions for monitoring α-syn, cells were washed with PBS and lysed in Triton X-100 buffer (50 mM Tris / 150 mM NaCl / 100 mM EDTA / 1% Triton X-100, pH 7.6) containing protease and phosphatase inhibitors for 30 min on ice. The lysates were centrifuged at 12,000 rpm for 30 min, and the soluble supernatant was taken. The remaining pellets were washed with Triton X-100 buffer, followed by centrifugation at 12,000 rpm for 20 min. The supernatants were discarded, and the resulting insoluble pellets were resuspended in laemli buffer containing 1% SDS. Samples were subjected to SDS-PAGE. After blocking with 5% milk and washing process, the membranes were incubated with primary antibodies overnight at 4 °C, followed by washing with PBS-T and incubation with horseradish peroxidase-conjugated secondary antibodies. Immunoreactive bands were detected using ECL reagents (Thermo Fisher Scientific, 32,106). For non-reducing SDS-PAGE, cell lysates were mixed with 4 × laemli buffer containing no 2-mercaptoethanol. For reducing SDS-PAGE, cells were lysed by RIPA buffer (150 mM NaCl, 1% Triton X-100, 1% sodium deoxycholate, 0.1% Tris–HCl, pH 7.5, 2 mM EDTA) and prepared with 5 × protein sample buffer containing 2-mercaptoethanol (Elpis Biotech, EBA-1052). Densitometry of developed bands was analyzed with ImageJ (NIH, Bethesda).

[3] = biological target: T1, p62 (Mus musculus, UniProt Q64337); test: Western blot in wild-type and p62-/- MEFs transduced with α-syn PFFs; assay type: cell-based; settings: 1 μM, 12 h
T1 construct: endogenous in cells; host or cells: wild-type and p62-/- MEFs (Keiji Tanaka's laboratory)
T1 sequence (Q64337 whole entry): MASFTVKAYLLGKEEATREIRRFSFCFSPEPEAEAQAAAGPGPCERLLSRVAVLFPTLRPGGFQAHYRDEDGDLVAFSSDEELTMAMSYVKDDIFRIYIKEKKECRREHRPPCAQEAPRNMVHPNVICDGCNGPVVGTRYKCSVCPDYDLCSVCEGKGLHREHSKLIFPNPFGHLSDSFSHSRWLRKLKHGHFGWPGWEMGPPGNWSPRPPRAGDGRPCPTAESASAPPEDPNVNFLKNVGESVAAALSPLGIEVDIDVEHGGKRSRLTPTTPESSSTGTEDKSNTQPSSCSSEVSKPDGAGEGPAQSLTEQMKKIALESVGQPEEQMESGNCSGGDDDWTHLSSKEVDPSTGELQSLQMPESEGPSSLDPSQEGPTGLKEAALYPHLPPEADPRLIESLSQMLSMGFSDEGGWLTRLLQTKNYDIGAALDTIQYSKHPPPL
From the text: Wild type human neuroblastoma cells (SH-SY5Y) and Hela were obtained from Korean Cell Line Bank. SH-SY5Y α-syn A53T cells, COS7 cells and 293A cell line were kindly gifted from S.J.L. lab. COS7 cells, 293A cells, wild-type and p62^−/− MEF cells, and wild type or A53T mutant α-syn SH-SY5Y cells were maintained in Dulbecco’s Modified Eagle’s Medium (DMEM) containing 10% fetal bovine serum (FBS). Wild-type and p62^−/− MEFs were obtained from Keiji Tanaka’s laboratory (Tokyo Metropolitan Research Institute, Japan). Cells were incubated at 37 °C in a 5% CO2 humidified chamber. The differentiation of SH-SY5Y α-syn A53T cells was done by 10 µM retinoic acid for 7 days prior to subsequent experiments.
For the separation of Triton X-100 soluble and insoluble fractions for monitoring α-syn, cells were washed with PBS and lysed in Triton X-100 buffer (50 mM Tris / 150 mM NaCl / 100 mM EDTA / 1% Triton X-100, pH 7.6) containing protease and phosphatase inhibitors for 30 min on ice. The lysates were centrifuged at 12,000 rpm for 30 min, and the soluble supernatant was taken. The remaining pellets were washed with Triton X-100 buffer, followed by centrifugation at 12,000 rpm for 20 min. […] Immunoreactive bands were detected using ECL reagents (Thermo Fisher Scientific, 32,106). […] Densitometry of developed bands was analyzed with ImageJ (NIH, Bethesda).

[4] = tested on: SH-SY5Y α-syn A53T cells; test: MitoTracker Red analysis in SH-SY5Y α-syn A53T cells treated with rotenone; assay type: cell-based, human; settings: 0.1 μM, 24 h; vs vehicle-treated cells
Method: Adenovirus overexpressing human wild-type SNCA was kindly gifted from the lab of S.J.L. COS7 cells were infected with the adenovirus overexpressing human α-syn at 0.8 × 10^8 pfu and incubated at 37 °C for 24 h. When the confluency reached 90%, the cells were split onto 6-well plates for further experiments. The α-syn aggregation was induced by the treatment of 100 nM rotenone (Sigma-Aldrich, R8875) for 56 h. For the MitoTracker analyses in SH-SY5Y α-syn A53T cells, rotenone was treated at 1 µM for 48 h with the co-treatment of 100 nM ATC161 for 24 h, then MitoTracker Red CMXRos (Invitrogen; M7512) was used to stain intact mitochondria following the manufacturer’s instruction.

[5] = tested on: extracellular total α-syn; test: ELISA of extracellular α-syn in conditioned media of SH-SY5Y α-syn A53T cells; assay type: cell-based, human
Method: The conditioned medium was collected from differentiated SH-SY5Y cells infected with adenovirus overexpressing human α-syn. Following 24 h infection, the medium was replaced with fresh media containing DMSO or ATC161. The medium was collected after 24 h and centrifuged at 1,000 rpm to remove cell debris and dead cells. The supernatant was concentrated using Amicon 10 K MWCO filters (Millipore, Billerica, MA). The amounts of α-syn in conditioned medium were measured by enzyme-linked immunosorbent assay (ELISA) with an ELISA kit (Abcam, human α-syn ELISA kit, ab260052) following the provider’s instruction. The subsets of collected media were treated to fresh SH-SY5Y cells in order to determine the level of α-syn propagated to the fresh cells.

[6] = tested on: LC3; test: Western blot of LC3 lipidation (LC3-I into LC3-II) in HeLa cells; assay type: cell-based; settings: 1 μM, 24 h
Method: as §1

[7] = Pharmacokinetic study of ATC161 in male ICR mice; assay type: in vivo
Method: Supplementary file 13024_2023_630_MOESM1_ESM.eps: Additional file 1: Supplementary figure 1. Drug profiles of ATL and Autotac compounds. A, drug profiles of ATL compounds. Tissue concentrations and oral bioavailability were measured in ICR male mice upon 5 mg/kg oral administration of each ATL compound. B, structures of ATC161~164. C, Pharmacokinetic study of ATC161 conducted in male ICR mice otherwise indicated. M.W. represents molecular weight. The plasma exposure and the half-life were determined upon either POor IPATC161 administration. The drug tissue exposure was determined in Tau301L BiFC mice. IV refers to intravenous injection.

For `Fc1ccc(COc2cccc(CNCCOCCOCCNc3cccc(-c4cc(-c5ccc6c(c5)OCO6)n[nH]4)c3)c2)cc1` [ATC161, 3-(3-(benzo[d][1,3]dioxol-5-yl)-1H-pyrazol-5-yl)-N-(2-(2-(2-((3-((4-fluorobenzyl)oxy)benzyl)amino)ethoxy)ethoxy)ethyl)aniline], which “increase in level of LAMP1+ lysosomes” value [1] is on record?
The value was 2.9 fold.

And the “cleaved-PARP1 level (apoptotic process)” value [2]?
Its value is “efficiently inhibited such an apoptotic process”.

And the “lipidation of LC3 in the absence of p62” value [3]?
Its value is “failed to induce the lipidation of LC3 into LC3-II”.

What about the “MitoTracker fluorescence (mitochondrial integrity)” value [4] of the same molecule?
Its value is “increased level of MitoTracker signals”.

And the “reduction of relative level of extracellular total α-syn” value [5]?
The value was 50%.

And the “lipidation of LC3 into LC3-II compared with ATC162” value [6]?
Its value is “induced the lipidation of LC3 into LC3-II more efficiently”.

And the half-life ([7]; male, ICR, oral, mouse plasma, read-out: terminal elimination half-life (T1/2) (converted))?
Its half-life is 3.7 h.

And the systemic exposure ([7]; oral administration, mice)?
Its systemic exposure is 3299.3 ng·h/mL.
